“Also recorded” adds a separate entry of the source.
Experiments:
[1] = system: ISO-induced myocardial injury; test: PET/SPECT imaging in rat model of ISO-induced myocardial damage; type: in vivo, Sprague Dawley rats; details: for Delineation of ISO-induced myocardial pathology by imaging: control vs ISO-treated rats
Description: (§1) Male Sprague Dawley rats (250-300 g) were purchased from Harlan (Indianapolis, Ind., USA), housed in regular light/dark cycles and allowed to acclimatize for at least 5 days prior to the experiments. Myocardial injury was induced by administering a sterile aqueous solution of ISO at a dose rate of 150 mg/kg bodyweight. The drug was intraperitoneally injected on two consecutive days.
In addition to the post-injury imaging, baseline images were also acquired before inducing ISO-injury. […] All injections were given intravenously in the tail vein of anesthetized (2% isoflurane-oxygen mixture) rats and imaging was performed at indicated times after the injections. Through the imaging period, anesthesia was maintained with a 2% isoflurane-oxygen mixture. For PET, the rats were positioned supine in a gantry of a PET-CT dual modality machine (Gamma Medica Ideas, Northridge, Calif.). A fly-mode CT of thoracic region was acquired before a 20 min list mode PET data acquisition. SPECT imaging was performed on a NanoSPECT machine (Trifoil Imaging, Chatsworth, Calif.) by helical SPECT acquisition of the thoracic region in 24 frames of 60 seconds each. After imaging, the rats were allowed to wake up and kept in their cage until the time of euthanasia.
The acquired PET images was reconstructed by filtered back projection algorithm and fused with the CT to generate a composite PET-CT image. SPECT acquisitions were reconstructed with HiSPECT reconstruction algorithm provided with the system.
Standard uptake value (SUV) was calculated by defining a three-dimensional region of interest (ROI) around the heart using the CT image. Background was determined by placing a spherical ROI at the same level as the 4th sternebrae in the XY plane in the posterior medial area of the left lung. Mean counts per voxel for the heart were normalized to mean background counts per voxel.

[2] = system: infarct region in brain (MCAO); test: PET/SPECT imaging in middle cerebral artery occlusion (MCAO) mouse model of brain stroke; type: in vivo; details: for Uptake in stroke regions: MCAO mouse model, FIG. 13, PET or SPECT
Description: Fasted mice are anesthetized with 1.5% isoflurane in a stream of O2:N2 mixture (30:70, 1 L/min) and blanketed in a thermostatic blanket at 37° C. […] The common carotid artery is occluded by a micro-clip. The left ECA is ligated, coagulated, and cut distal to the cranial thyroid artery. A 15 mm monofilament nylon suture (6-0, dia of heat-rounded tip=0.2-0.3 mm) is inserted into the ECA and gently advanced through the ICA until its tip has occluded the origin of the MCA. Correct placement of the suture is indicated by a sudden drop of the local cortical blood flow in the left MCA territory to 10-20% of basal flow. CBF is monitored by non-invasive laser Doppler flowmetry (Moor Instruments). A sustained reduction of >80% is indicative of successful MCAO. The monofilament is secured in place with a ligature and the skin incision is closed. The monofilament suture is left in place for permanent MCAO, but for transient MCAO, the occluding suture is removed after 1 h by anesthetizing the mouse and re-opening the wound.
^18F-FGA was found, in the present work, to accumulate in the brain of a mouse model of brain stroke created by middle cerebral artery occlusion (MCAO). To test ^18F-FGA for imaging infarct in brain, we employed a mouse model of permanent MCAO. PET was performed after 2 h of MCAO surgery. Approximately 1 mCi of ^18F-FGA was injected (i.v.) and a 20 min image was acquired after 1 h of injection. […] We also performed 1 day post-MCAO imaging of brain excised after 2 h of ^18F-FGA injection.

rats = test: ISO-induced myocardial injury in rats (ECG, cardiac troponin I, corticosterone, TTC staining); type: in vivo, Sprague Dawley rats
Description: as §1
Lead 1 ECG of isoflurane-anesthetized rats was recorded by placing negative electrode on the right front paw, positive electrode on the left front paw, and ground lead on to the left hind paw. The electrodes were secured to the lead (CB Sciences C-ISO-255), bioamplifier (ETH-225), and analog to digital converter (iWorx 118) and the signal was recorded using Labscribe 2.0 software (iWorx, Dover, N.H.). Before analysis of raw data, the signal was filtered to eliminate 60 Hz mains frequency.
Blood samples were collected before euthanasia and plasma was separated by centrifugation (5,000 rpm for 5 min). We determined the levels of cardiac TnI (cTnI) in plasma by using a rat-specific enzyme-linked immunoassay kit obtained from Life Diagnostics (West Chester, Pa.). The plasma samples were diluted 1:2 with PBS before estimation.
We measured the concentration of stress hormone corticosterone in undiluted plasma by using an ELISA kit from Cayman Chemicals (Ann Arbor, Mich.). Corticosterone is the only glucocorticoid present in rats.
After the final session of imaging and blood sample collection, the rats were euthanized and their hearts were immediately collected and frozen at −20° C. for 2 h. The hearts were sectioned into 2 mm slices and placed in 1% solution of TTC in PBS at 37° C. with intermittent shaking. After 30 min of staining, the TTC was removed and replaced with 10% buffered fomialin overnight.

[3] = Biodistribution of ^18F-FGA in normal mice; type: in vivo, CD1 mice; details: for Biodistribution, Blood / Biodistribution, Bone / Biodistribution, Brain / Biodistribution, Heart / Biodistribution, Kidney / Biodistribution, Liver / Biodistribution, Lung / Biodistribution, Muscle / Biodistribution, Spleen: i.v. 0.1 mCi, decay-corrected, mean ± SD
Description: All animal work described herein was performed according to the NIH Animal Use and Care Guidelines and was approved by the institutional IACUC. Nine male and three female CD1 mice (20-36 g) were obtained from Harlan Laboratories (Indianapolis, Ind.), and housed in a controlled environment with 12 h day/night cycle. The mice were allowed to acclimatize for at least 1 week before inclusion in the study. On the day of imaging, the animals were anesthetized with 2-3% isoflurane in oxygen stream. Approximately 100 μCi of ^18F-FGA was injected intravenously in the tail vein. The animals were placed in a cage with absorbent padding until biodistribution. Briefly, the mice were euthanized after 1 or 3 hours post injection by an over-dose of isoflurane (4%) followed by cervical dislocation. Various organs were excised, washed with saline, weighed, and appropriate tissue samples were counted in an automated gamma counter (Packard Cobra II Auto Gamma, Perkin Elmer, Boston, Mass.). Total blood volume, bone, and muscle mass were estimated as 5.7%, 10% and 40% of body weight, respectively. A diluted sample of injected ^18F-FGA served as a standard for comparison.
Results of a whole body distribution analysis of ^18F-FGA in various organs of normal mice 1 and 3 h after injection are shown in Table 1. Normal healthy mice were injected with ^18F-FGA (0.1 mCi) via the tail vein and the mice were euthanized at 1 h and 3 h post injection. […] All other organs accumulated less than 0.5% of the injected dose/g tissue. The concentration of ^18F-FGA in circulation was also negligible.
We injected 0.1 mCi (50 μl) of ^18F-FGA in normal healthy mice (n=8), and collected organs for counting at 1 h post-injection. The accumulation in the brain was less than about 0.1% and in all major organs was below 0.5% of the injected dose and it cleared via renal system. […] Rapid clearance and absence of accumulation in healthy cerebral tissue indicated effectiveness of ^18F-FGA for clear infarct imaging.

[4] = Circulation kinetics of ^18F-FGA in mice; type: in vivo, CD-1 mice; details: i.v., elimination phase, 30-180 minute time points
Description: Five male CD-1 mice were injected with 100 μCi of ^18F-FGA intravenously via the tail vein. At 0, 30, 60, 90, 120, and 180 minutes post injection, 25-50 μl of blood was sampled from the retro-orbital sinus. Blood was weighed and counted in an automated gamma counter (Packard Cobra II Auto Gamma, Perkin Elmer, Boston, Mass.). One mouse was excluded from the study based on macroscopic observations about the abnormal kidney morphology upon necropsy.
For statistical comparisons we employed GraphPad Prism 6 Software (GraphPad, La Jolla, Calif.). Two group comparisons were performed using a Student's T Test, comparisons between 3 or more groups were done using one way ANOVA. Pharmacokinetic parameters were calculated from the semi-log plot of time-activity curves using method of residuals.
Circulation kinetics of ^18F-FGA was studied over the course of 3 h. As shown in FIG. 6 (left panel), by 30 min, more than 99% of the injected dose was removed from circulation. […] Pharmacokinetic parameters were calculated from the 30-180 minute time points and are presented in tabular form (FIG. 6, right panel).

[5] = normal healthy mice (n=8), 0.1 mCi, 1 h post-injection
[6] = normal mice, 1 and 3 h after injection

## [C-]#[N+]CC(C)(C)OC.[C-]#[N+]CC(C)(C)OC.[C-]#[N+]CC(C)(C)OC.[C-]#[N+]CC(C)(C)OC.[C-]#[N+]CC(C)(C)OC.[C-]#[N+]CC(C)(C)OC.[Tc] [^99mTc-Sestamibi, ^99mTc-sesta-methoxyisobutylisonitrile, reference compound]
[1]
  Delineation of ISO-induced myocardial pathology by imaging: unable to delineate ISO-induced myocardial pathology

## C/C(=N\[O-])[C@@H](C)[N-]CC(C)(C)C[N-][C@H](C)/C(C)=N/O.[O]=[99Tc+3] (racemic) [HMPAO, reference compound]
[2]
  Uptake in stroke regions: deficient uptake in stroke regions

## CC(C)NCC(O)c1ccc(O)c(O)c1 (stereo not shown) [ISO, isoproterenol]
rats; ISO-treated rats (n=4), 150 mg/kg i.p. on two consecutive days, plasma 24-48 hours after ISO
  Cardiac troponin in plasma: 63 pg/mL
rats; ISO-treated rats (n=6), 150 mg/kg i.p. on two consecutive days
  Plasma level of corticosterone: 34.1 ng/mL
rats; rats, after two consecutive days of ISO injection
  Heart histology (Evans blue, TTC staining): generalized and extensive necrosis
rats; rats, over the course of ISO treatment
  ST duration (ECG): increased
rats; rats, same day of ISO treatment
  R-R interval (ECG): significantly decreased

## O=C(O)[C@@H](O)[C@@H](O)[C@H](O)[C@@H]([18F])C(=O)O [^18F-FGA, 2-deoxy-2-[^18F]fluoroglucaric acid]
[3]; [5]
  Accumulation in all major organs: below 0.5 % of the injected dose
  Accumulation in the brain: less than 0.1 % of the injected dose
[3]; [6]
  Accumulation in all other organs (other than renal system): less than 0.5 % of the injected dose/g tissue
  Concentration in circulation: negligible
  Fate of the majority of injected radioactivity: excreted via the renal system
[3]; normal mice, 1 hour (n = 8)
  Biodistribution, Blood: 0.145 ± 0.095 % ID/g tissue
  Biodistribution, Bone: 0.321 ± 0.128 % ID/g tissue
  Biodistribution, Brain: 0.039 ± 0.027 % ID/g tissue
  Biodistribution, Heart: 0.056 ± 0.027 % ID/g tissue
  Biodistribution, Kidney: 4.226 ± 3.281 % ID/g tissue
  Biodistribution, Liver: 0.417 ± 0.128 % ID/g tissue
  Biodistribution, Lung: 0.192 ± 0.087 % ID/g tissue
  Biodistribution, Muscle: 0.049 ± 0.025 % ID/g tissue
  Biodistribution, Spleen: 0.074 ± 0.036 % ID/g tissue
[3]; normal mice, 3 hour (n = 4)
  Biodistribution, Blood: 0.051 ± 0.025 % ID/g tissue
  Biodistribution, Bone: 0.727 ± 0.773 % ID/g tissue
  Biodistribution, Brain: 0.014 ± 0.007 % ID/g tissue
  Biodistribution, Heart: 0.018 ± 0.01 % ID/g tissue
  Biodistribution, Kidney: 0.698 ± 0.378 % ID/g tissue
  Biodistribution, Liver: 0.087 ± 0.027 % ID/g tissue
  Biodistribution, Lung: 0.104 ± 0.073 % ID/g tissue
  Biodistribution, Muscle: 0.03 ± 0.018 % ID/g tissue
  Biodistribution, Spleen: 0.033 ± 0.015 % ID/g tissue
[4]
  Elimination rate constant: 0.83 h⁻¹
  Half-life: approximately 35 minutes
[2]; 1 day post-MCAO, brain excised 2 h after injection
  Ipsilateral vs contralateral accumulation in excised brain: higher accumulation in the ipsilateral side than the contralateral side
[2]
  Uptake in stroke regions: accumulates in stroke regions of ipsilateral cerebral hemisphere
[2]; permanent MCAO, PET after 2 h of MCAO, 1 mCi i.v., image 1 h after injection
  Accumulation in ipsilateral side of brain: central area of ^18F-FGA accumulation
[1]; PET, 1 h post-injection, after two consecutive days of ISO
  Accumulation in cardiac tissue of ISO-treated rats: accumulated large amounts
[1]; PET, ISO-treated rats
  Time to accumulation in ISO-treated hearts: ≤ 1 h
[1]; PET, ISO-treated rats, 4 h post-injection
  Contrast between accumulation in myocardial tissue and non-target tissues: very pronounced
[1]; PET, rats without ISO treatment
  Uptake in normal (baseline/control) heart: negligible uptake; also recorded: no detectable signal
[1]
  Delineation of ISO-induced myocardial pathology by imaging: clearly diagnosed ISO-induced cardiomyopathy

Reference: patent publication US10953113B2, “Imaging agents and methods of use” (The Board of Regents of the University of Oklahoma, priority 2016, dated 2021)
